Test results from ChEMBL document CHEMBL3997845, “Identification of a novel hormone sensitive lipase inhibitor with a reduced potential of reactive metabolites formation” (Bioorg Med Chem, 2017).
The source made the active and inactive calls. No cut-off for these calls is given here.

What was measured:
Rattus norvegicus [1] = test: Antilipolytic activity in Wistar rat assessed as reduction in plasma glycerol AUC (0 to 7 hrs) at 10 mg/kg, po; assay type: functional, organism-based
Liver = test: Drug level in human liver microsomes treated with 2-(4-(5-(trifluoromethyl)pyridin-2-yloxy)benzyloxy)phenylboronic acid at 500 uM after 60 mins in presence of [13C2,15N-Gly]GSH and NADPH generating system by LC-MS/MS analysis; assay type: ADME, microsome; conditions: 1 h
[2] = AUC (0 to 7 hrs) in Wistar rat at 3 mg/kg, po by LC-MS/MS analysis; assay type: ADME, organism-based; set-up: dose 3 mg/kg, time < 7 hr, route oral; conditions: in vivo
Rattus norvegicus [3] = test: Antilipolytic activity in Wistar rat assessed as reduction in plasma glycerol AUC (0 to 7 hrs) at 3 mg/kg, po relative to control; assay type: functional; set-up: scale not given: the % may be the effect or the level left
[4] = Cmax in Wistar rat at 3 mg/kg, po by LC-MS/MS analysis; assay type: ADME, organism-based; set-up: dose 3 mg/kg, route oral; conditions: in vivo
[5] = Metabolic stability in rat liver microsomes assessed as parent compound remaining at 1 uM after 30 mins in presence of NADPH generating system by LC-MS/MS analysis; assay type: ADME, microsome; conditions: read-out: Stability

O=C(Oc1ccc(Oc2ccc(C(F)(F)F)cn2)cc1)N1CCC(O)CC1
Activity (Rattus norvegicus [1]): Active

O=C(O)CNC(=O)C1CSC(c2ccc(Oc3ccc(C(F)(F)F)cn3)cc2)N1 (stereo unspecified)
Drug metabolism (Liver): Metabolite_Detected

O=C(Nc1ccc(Cl)cc1B(O)O)c1ccc(Oc2ccc(C(F)(F)F)cc2)nc1
AUC(0-t) at 7 h [2]: 19600 ng·h/mL | Activity (Rattus norvegicus [3]): 17% | Cmax [4]: 3350 ng/mL | remaining at 0.5 h, 1 µM [5]: 81%
